Measured values reported in patent publication US10947129B2, “Fluid disinfection with ultraviolet radiation and a chemical disinfectant” (Trojan Technologies, priority 2015, dated 2021).
“Also recorded” adds a separate entry of the source.

Legend:
total coliform = details: cited from earlier work
E. coli [1] = experiment: E. coli inactivation by PAA alone in WWTP secondary effluent (bench test); format: cell-based, Escherichia coli
Method: (§1) In this study, secondary effluent samples were collected and treated with PAA to achieve residual concentration*contact time (CTs) of 2.5-50 mg·min/L. PAA tests were conducted in clean glass beakers (500 or 2000 mL), and mixed continuously using a magnetic stirrer (600 rpm). Measurements of PAA residuals were collected over time, and E. coli samples were collected following PAA quenching using sodium bisulfite. The four samples collected between September 22-24 were each treated with PAA (CO=5.0 mg/L) in order to estimate the demand/decay for each sample. […] The demand/decay kinetic parameters were recalculated using the experimental results from each inactivation experiment.
[formula] where, • CT is the integral PAA dose (concentration*contact time); mg·min/L (Santoro et al., 2015) PAA and UV Disinfection Kinetics
To develop an disinfection kinetic model, the concentration of viable for E. coli can be plotted against either PAA—CT dose or UV fluence and the data fitted using the double exponential inactivation model, described in Equation 3. […]
The E. coli inactivation kinetics by PAA was calculated for each sample by plotting the viable concentration of E. coli on a log scale (y-axis) against the PAA—CT dose (x-axis), and is shown in FIG. 11. […]

[2] = low UV fluence (13 mJ/cm^2), PAA added before or after UV irradiation; cited from earlier work
[3] = PAA demand/decay in WWTP secondary effluent (Equation 1 fit); format: physicochemical; details: for Decay (k, 1/min) / Demand (D, mg/L): PAA only disinfection
Method: as §1
PAA residuals were fitted to a demand/decay curve using Equation 1. The PAA CT (mg·min/L) was determined by integrating the area under the demand/decay curve and is calculated using Equation 2. C=(C0−D)e^−kt [Equation 1] where, • C is the concentration of PAA (mg/L) at time t (min) • C0 is initial concentration of PAA (mg/L) • D is the instantaneous demand of PAA (mg/L) • k is the decay rate constant of PAA (1/min) • t is the contact time (min)

E. coli [4] = experiment: Combined UV and PAA disinfection tests on WWTP secondary effluent; format: cell-based, Escherichia coli
From the text: For the UV+PAA experiment, effluent was first irradiated to UV fluences of 10, 15 or 20 mJ/cm^2, then dosed with PAA as described above. For the PAA+UV experiment, effluent was first dosed with PAA as described above. After set durations, portions of the sample were removed, PAA quenched with sodium bisulfite, and then subjected to UV fluences of 10, 15 or 20 mJ/cm^2. For the simultaneous PAA+UV experiment, two different scenarios were investigated. The first involved dosing PAA at the onset of UV irradiation, irradiating for a set duration, and then removing the sample from UV exposure and continuing to stir until a desired PAA contact time was achieved. The second scenario involved first dosing PAA and allowing it to stir for a period prior to subjecting it to UV irradiation.
Three distinct scenarios were performed with respect to testing the combined UV and PAA disinfection processes: UV prior to PAA (UV→PAA), PAA prior to UV (PAA→UV), simultaneous UV and PAA (UV+PAA). For the UV→PAA tests, UV fluences of 10, 15, and 20 mJ/cm^2 were applied prior to PAA addition, and PAA CTs ranged from 5-25 mg·min/L. Each of FIGS. 14-26 illustrates the results for viable E. coli as a function of PAA CT exposure with different levels of UV fluence applied, prior to PAA treatment.

CC(=O)OO [PAA, peracetic acid]
inactivation of total coliform (total coliform; PAA 2 mg/L applied immediately before UV fluence of 192 mJ/cm^2): over 4 log
attainment of target disinfection levels (total coliform; PAA concentration between 2 and 8 mg/L, alone): unable to reach the target disinfection levels
PAA CT dose required to meet disinfection target (E. coli [1]; target 63 MPN/100 mL (half the 30-day geomean permit), model from all data): 49.2 mg·min/L
PAA CT dose required to meet disinfection target (E. coli [1]; target 244 MPN/100 mL (half the daily maximum permit), model from poorest inactivation data): 36.0 mg·min/L
synergistic benefit of PAA combined with UV [2]: no synergistic benefit observed
Decay (k, 1/min) ([3]; sample Sept. 22 - AM): 0.063 min⁻¹
Demand (D, mg/L) ([3]; sample Sept. 22 - AM): 3.58 mg/L
Decay (k, 1/min) ([3]; sample Sept. 22 - PM): 0.057 min⁻¹
Demand (D, mg/L) ([3]; sample Sept. 22 - PM): 2.60 mg/L
Decay (k, 1/min) ([3]; sample Sept. 24 - AM): 0.056 min⁻¹
Demand (D, mg/L) ([3]; sample Sept. 24 - AM): 3.50 mg/L
Decay (k, 1/min) ([3]; sample Sept. 24 - PM): 0.058 min⁻¹
Demand (D, mg/L) ([3]; sample Sept. 24 - PM): 2.91 mg/L
decay rates ([3]; all samples): ca. 0.060 l/min
PAA demand ([3]; samples collected in the afternoon): ca. 2.75 mg/L
PAA demand ([3]; samples collected in the morning): ca. 3.5 mg/L
attainment of E. coli disinfection targets (E. coli [4]; PAA prior to UV (PAA→UV), PAA CT 10-23 mg·min/L, UV 10, 15, 20 mJ/cm^2): did NOT always result in the geometric mean or maximum disinfection targets being met
attainment of E. coli disinfection targets (E. coli [4]; UV prior to PAA (UV→PAA), UV 10, 15, 20 mJ/cm^2, PAA CT 5-25 mg·min/L): both the maximum and geometric mean disinfection targets being met for at least one combination of fluence and CT; also recorded: consistently met disinfection targets
attainment of E. coli disinfection targets (E. coli [4]; simultaneous UV+PAA, UV 10, 15, 20 mJ/cm^2, PAA CT 15-30 mg·min/L): could not achieve the geomean or maximum disinfection targets
